From PubChem BioAssay AID1963972 (Molecular Pharmacology Branch, DTP, NCI, 2024)

System: 945468-187-T-J2-PDC spheroids viability
Test: Anticancer human tumor 945468-187-T-J2-PDC patient-derived rectal carcinoma cell line growth inhibition [PI3K]
Settings: spheroids with HUVEC and MSC; for IC50: curve of first compound; for viability, T/C: stronger effect = lower value; active = viability on the fitted dose curve at most 10% of control; inactive = the rest
Method in brief: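 High-throughput combination screen: PI3K inhibitors crossed with targeted small molecules on complex spheroids of tumor cells, HUVEC and MSCs at 37 degrees C, 5% CO2. Top concentration was at or near clinical Cmax (otherwise 10 microM), with half-log decrements.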

[1] = second compound 0.0316 µM, first compound 0.0316 µM
[2] = second compound 0.0316 µM, first compound 0.1 µM
[3] = second compound 0.0316 µM, first compound 0.316 µM
[4] = second compound 0.0316 µM, first compound 1 µM
[5] = second compound 0.0316 µM, first compound 3.16 µM
[6] = second compound 0.0316 µM, first compound 10 µM
[7] = second compound 0.1 µM, first compound 0.0316 µM
[8] = second compound 0.1 µM, first compound 0.1 µM
[9] = second compound 0.1 µM, first compound 0.316 µM
[10] = second compound 0.1 µM, first compound 1 µM
[11] = second compound 0.1 µM, first compound 3.16 µM
[12] = second compound 0.1 µM, first compound 10 µM
[13] = second compound 0.316 µM, first compound 0.0316 µM
[14] = second compound 0.316 µM, first compound 0.1 µM
[15] = second compound 0.316 µM, first compound 0.316 µM
[16] = second compound 0.316 µM, first compound 1 µM
[17] = second compound 0.316 µM, first compound 3.16 µM
[18] = second compound 0.316 µM, first compound 10 µM
[19] = second compound 1 µM, first compound 0.0316 µM
[20] = second compound 1 µM, first compound 0.1 µM
[21] = second compound 1 µM, first compound 0.316 µM
[22] = second compound 1 µM, first compound 1 µM
[23] = second compound 1 µM, first compound 3.16 µM
[24] = second compound 1 µM, first compound 10 µM
[25] = second compound 3.16 µM, first compound 0.0316 µM
[26] = second compound 3.16 µM, first compound 0.1 µM
[27] = second compound 3.16 µM, first compound 0.316 µM
[28] = second compound 3.16 µM, first compound 1 µM
[29] = second compound 3.16 µM, first compound 3.16 µM
[30] = second compound 3.16 µM, first compound 10 µM
[31] = second compound 10 µM, first compound 0.0316 µM
[32] = second compound 10 µM, first compound 0.1 µM
[33] = second compound 10 µM, first compound 0.316 µM
[34] = second compound 10 µM, first compound 1 µM
[35] = second compound 10 µM, first compound 3.16 µM
[36] = second compound 10 µM, first compound 10 µM
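Note: spheroids exposed to compounds for seven days before reading.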

C#Cc1c(F)ccc2cc(O)cc(-c3ncc4c(N5CC6CCC(C5)N6)nc(OCC56CCCN5CC(F)C6)nc4c3F)c12 (stereo unspecified) + Cc1nc(NC(=O)N2CCCC2C(N)=O)sc1-c1ccnc(C(C)(C)C(F)(F)F)c1
> 10 µM: IC50 (second compound 0.0316 µM) | IC50 (second compound 0.1 µM) | IC50 (second compound 0.316 µM) | IC50 (second compound 1 µM) | IC50 (second compound 3.16 µM) | IC50 (second compound 10 µM)
inactive: viability, T/C [1] 110% | viability, T/C [2] 110% | viability, T/C [3] 105% | viability, T/C [4] 103% | viability, T/C [5] 135% | viability, T/C [6] 107% | viability, T/C [7] 125% | viability, T/C [8] 114% | viability, T/C [9] 102% | viability, T/C [10] 107% | viability, T/C [11] 136% | viability, T/C [12] 105% | viability, T/C [13] 103% | viability, T/C [14] 100% | viability, T/C [15] 116% | viability, T/C [16] 102% | viability, T/C [17] 164% | viability, T/C [18] 99.1% | viability, T/C [19] 125% | viability, T/C [20] 93.6% | viability, T/C [21] 109% | viability, T/C [22] 116% | viability, T/C [23] 106% | viability, T/C [24] 90.5% | viability, T/C [25] 85.6% | viability, T/C [26] 85.8% | viability, T/C [27] 95.4% | viability, T/C [28] 94.1% | viability, T/C [29] 94% | viability, T/C [30] 117% | viability, T/C [31] 85.5% | viability, T/C [32] 73.2% | viability, T/C [33] 99% | viability, T/C [34] 92.6% | viability, T/C [35] 77% | viability, T/C [36] 80.9%

C=CC(=O)N1CCN(c2nc(=O)n(-c3c(C)ccnc3C(C)C)c3nc(-c4c(O)cccc4F)c(F)cc23)C(C)C1 (stereo unspecified) + Cc1nc(NC(=O)N2CCCC2C(N)=O)sc1-c1ccnc(C(C)(C)C(F)(F)F)c1
inactive: viability, T/C [1] 102% | viability, T/C [2] 79.7% | viability, T/C [3] 96.2% | viability, T/C [4] 90.1% | viability, T/C [5] 128% | viability, T/C [6] 113% | viability, T/C [7] 117% | viability, T/C [8] 121% | viability, T/C [9] 97.9% | viability, T/C [10] 97.5% | viability, T/C [11] 95% | viability, T/C [12] 106% | viability, T/C [13] 117% | viability, T/C [14] 156% | viability, T/C [15] 102% | viability, T/C [16] 106% | viability, T/C [17] 101% | viability, T/C [18] 96% | viability, T/C [19] 102% | viability, T/C [20] 111% | viability, T/C [21] 100% | viability, T/C [22] 91.6% | viability, T/C [23] 95% | viability, T/C [24] 104% | viability, T/C [25] 91.2% | viability, T/C [26] 107% | viability, T/C [27] 83.8% | viability, T/C [28] 81.9% | viability, T/C [29] 82.8% | viability, T/C [30] 96.2% | viability, T/C [31] 70.4% | viability, T/C [32] 87.8% | viability, T/C [33] 81.7% | viability, T/C [34] 73.7% | viability, T/C [35] 87.3% | viability, T/C [36] 92.9%
> 10 µM: IC50 (second compound 0.0316 µM) | IC50 (second compound 0.1 µM) | IC50 (second compound 0.316 µM) | IC50 (second compound 1 µM) | IC50 (second compound 3.16 µM) | IC50 (second compound 10 µM)

CC(Cn1ccc(-c2ccc(C#N)c(Cl)c2)n1)NC(=O)c1cc(C(C)O)[nH]n1 (stereo unspecified) + Cc1nc(NC(=O)N2CCCC2C(N)=O)sc1-c1ccnc(C(C)(C)C(F)(F)F)c1
> 10 µM: IC50 (second compound 0.0316 µM) | IC50 (second compound 0.1 µM) | IC50 (second compound 0.316 µM) | IC50 (second compound 1 µM) | IC50 (second compound 3.16 µM) | IC50 (second compound 10 µM)
inactive: viability, T/C [1] 118% | viability, T/C [2] 94.1% | viability, T/C [3] 115% | viability, T/C [4] 96.3% | viability, T/C [5] 90.7% | viability, T/C [6] 82.5% | viability, T/C [7] 90.7% | viability, T/C [8] 81% | viability, T/C [9] 90.8% | viability, T/C [10] 100% | viability, T/C [11] 104% | viability, T/C [12] 82.1% | viability, T/C [13] 100% | viability, T/C [14] 95.6% | viability, T/C [15] 109% | viability, T/C [16] 80% | viability, T/C [17] 89.6% | viability, T/C [18] 83.4% | viability, T/C [19] 95.4% | viability, T/C [20] 84.9% | viability, T/C [21] 79.4% | viability, T/C [22] 101% | viability, T/C [23] 79.3% | viability, T/C [24] 84.7% | viability, T/C [25] 81% | viability, T/C [26] 84.2% | viability, T/C [27] 78.4% | viability, T/C [28] 83.5% | viability, T/C [29] 71.7% | viability, T/C [30] 74.9% | viability, T/C [31] 76.9% | viability, T/C [32] 76.3% | viability, T/C [33] 73.3% | viability, T/C [34] 68% | viability, T/C [35] 69% | viability, T/C [36] 61.5%
